For orientation: IC50 means the point on the concentration scale where inhibition reaches its midpoint.

Where a name gives a salt, the structure may show the parent alone.

These results are taken from US9951010B2, “Compounds as CRTH2 antagonist and uses thereof” (SUNSHINE LAKE PHARMA CO., LTD., priority 2014, dated 2018).

This experiment concerns the target T1, CRTH2 receptor (Homo sapiens, UniProt Q9Y5Y4).
T1 construct: expressed in transfected cells; host or cells: CHO-K1/G cells
T1 sequence (Q9Y5Y4 1-395): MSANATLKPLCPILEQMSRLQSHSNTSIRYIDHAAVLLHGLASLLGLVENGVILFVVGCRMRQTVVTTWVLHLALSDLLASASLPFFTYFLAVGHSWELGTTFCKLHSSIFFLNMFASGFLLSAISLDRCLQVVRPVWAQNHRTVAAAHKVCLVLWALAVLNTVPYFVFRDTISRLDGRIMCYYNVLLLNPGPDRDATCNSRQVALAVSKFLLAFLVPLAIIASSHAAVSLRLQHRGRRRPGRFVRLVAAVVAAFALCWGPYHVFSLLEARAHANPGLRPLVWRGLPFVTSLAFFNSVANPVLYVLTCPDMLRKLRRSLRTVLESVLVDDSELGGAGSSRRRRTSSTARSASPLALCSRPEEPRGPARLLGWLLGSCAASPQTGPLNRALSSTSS
Briefly: FLIPR detection of inhibitory activity against CRTH2 (CHO-K1/G cells, PGD2 as agonist). Type of experiment: cell-based. Conditions: CHO-K1/G cells with stable expression of CRTH2 receptor, PGD2 at EC80, FLIPR. The procedure: The test compound was weighed accurately and then dissolved in a suitable amount of DMSO to prepare a stock solution at a concentration of 10 mM; after clear and transparent, the stock solution was subpackaged and cryostoraged at −20° C. for use. Before testing, the test compound was diluted with balanced salt solution (HBSS buffer, containing 4-(2-hydroxyethyl)piperazine-1-ethanesulfonicacid) at a concentration of 20 mM) to 5 times testing concentration.
CHO-K1/G cells with stable expression of CRTH2 receptor were prepared to 5 times testing concentration and seeded into 384-microwell plate, and incubated in an incubator at 37° C./5% CO2. After incubating for 18 hours, to the cells in 384-microwell plate was added 20 μL of dye followed by the addition of 10 μL of prepared test compound solution. And then the cell plate was incubated in the incubator at 37° C./5% CO2 for 1 hour, at last which was balanced at rt for 15 min. After adding 12.5 μL of positive agonist (PGD2) at a concentration of 5 times EC80 to each well of the cell plate, the RFU (fluorescence intensity) value of the test compound was detected.
The data were recorded from ScreenWorks (version 3.1), and collected and analyzed by using Excel and GraphPad Prism 6 software to calculate the values of IC50.
In turn, `Cc1c(C2CCC(N(C)C(=O)c3ccc4ccccc4n3)CC2)c2cc(F)ccc2n1CC(=O)O` (single isomer, unassigned) [Example 17a, 2-(5-fluoro-2-methyl-3-(4-(N-methylquinoline-2-carboxamido)cyclohexyl)-1H-indol-1-yl)acetic acid hydrochloride] came in with an IC50 of 600 nM. Compound `Cc1c(C2CCC(N(C)C(=O)c3ccc4ccccc4n3)CC2)c2cc(F)ccc2n1CC(=O)O` (single isomer, unassigned) [Example 17b, 2-(5-fluoro-2-methyl-3-(4-(N-methylquinoline-2-carboxamido)cyclohexyl)-1H-indol-1-yl)acetic acid hydrochloride] showed an IC50 of 97.2 nM. Next, `Cc1c(C2CCC(NC(=O)c3ccc4cccnc4n3)CC2)c2cc(F)ccc2n1CC(=O)O` (single isomer, unassigned) [Example 20, 2-(3-(4-(1,8-naphthyridine-2-carboxamido)cyclohexyl)-5-fluoro-2-methyl-1H-indol-1-yl)acetic acid hydrochloride]: 39.8 nM; `Cc1c(C2CCC(NC(=O)c3cccc4ncccc34)CC2)c2cc(F)ccc2n1CC(=O)O` (single isomer, unassigned) [Example 26b, 2-(5-fluoro-2-methyl-3-(4-(quinoline-5-carboxamido)cyclohexyl)-1H-indol-1-yl)acetic acid hydrochloride]: 83.9 nM; `Cc1c(C2CCC(NS(=O)(=O)c3ccc(F)cc3F)CC2)c2cc(F)ccc2n1CC(=O)O` (single isomer, unassigned) [Example 29b, 2-(3-(4-(2,4-difluorophenylsulfonamido)cyclohexyl)-5-fluoro-2-methyl-1H-indol-1-yl)acetic acid]: 79.5 nM. As for `O=C(O)Cn1cc(C2CCN(S(=O)(=O)c3ccc(F)cc3)CC2)c2ccccc21` [Control compound, reference compound], the figure is 6190 nM; as for `Cc1c(C2CCN(C(=O)c3cccc4ccccc34)CC2)c2cc(F)ccc2n1CC(=O)O` [Example 2, 2-(3-(1-(1-naphthoyl)piperidin-4-yl)-5-fluoro-2-methyl-1H-indol-1-yl)acetic acid], 674 nM; as for `Cc1c(C2CCC(NC(=O)c3cccc4ccccc34)CC2)c2cc(F)ccc2n1CC(=O)O` (stereo not drawn) [Example 3, 2-(3-(4-(1-naphthamido)cyclohexyl)-5-fluoro-2-methyl-1H-indol-1-yl)acetic acid], 265 nM.

The compound `Cc1c(C2CCN(C(=O)c3ccc4ccccc4n3)CC2)c2cc(F)ccc2n1CC(=O)O` [Example 4, 2-(5-fluoro-2-methyl-3-(1-(quinoline-2-carbonyl)piperidin-4-yl)-1H-indol-1-yl)acetic acid hydrochloride] displayed an IC50 of 306 nM. Next, `Cc1c(C2=CCCN(C(=O)c3ccc4ccccc4n3)C2)c2cc(F)ccc2n1CC(=O)O` [Example 7, 2-(5-fluoro-2-methyl-3-(1-(quinoline-2-carbonyl)-1,2,5,6-tetrahydropyridin-3-yl)-1H-indol-1-yl)acetic acid hydrochloride]: 776 nM; `Cc1c(C2=CCN(Cc3ccc4ccccc4n3)CC2)c2cc(F)ccc2n1CC(=O)O` [Example 8, 2-(5-fluoro-2-methyl-3-(1-(quinolin-2-yl)methyl-1,2,3,6-tetrahydropyridin-4-yl)-1H-indol-1-yl)acetic acid dihydrochloride]: 657 nM.

As for `Cc1c(C2=CCN(C(=O)NCc3ccc(F)cc3F)CC2)c2cc(F)ccc2n1CC(=O)O` [Example 9a, 2-(3-(1-((2,4-difluorobenzyl)carbamoyl)-1,2,3,6-tetrahydropyridin-4-yl)-5-fluoro-2-methyl-1H-indol-1-yl)acetic acid], the IC50 is 192 nM.

For `Cc1c(C2CCC(NC(=O)c3cccc4c(F)cccc34)CC2)c2cc(F)ccc2n1CC(=O)O` (stereo not drawn) [Example 10, 2-(5-fluoro-3-(4-(5-fluoro-1-naphthamido)cyclohexyl)-2-methyl-1H-indol-1-yl)acetic acid], the IC50 stood at 545 nM. In turn, `Cc1c(C2CCC(NC(=O)NCc3ccc(F)cc3F)CC2)c2cc(F)ccc2n1CC(=O)O` (stereo not drawn) [Example 16, 2-(3-(4-(3-(2,4-difluorobenzyl)ureido)cyclohexyl)-5-fluoro-2-methyl-1H-indol-1-yl)acetic acid] registered an IC50 of 969 nM.

Take `Cc1c(C2CC(NC(=O)c3ccc4ccccc4n3)C2)c2cc(F)ccc2n1CC(=O)O` (stereo not drawn) [Example 21, 2-(5-fluoro-2-methyl-3-(3-(quinoline-2-carboxamido)cyclobutyl)-1H-indol-1-yl)acetic acid hydrochloride]: the IC50 worked out at 185 nM. Compound `Cc1c(C2=CCCN(C(=O)c3cccc4ccccc34)C2)c2cc(F)ccc2n1CC(=O)O` [Example 23, 2-(3-(1-(1-naphthoyl)-1,2,5,6-tetrahydropyridin-3-yl)-5-fluoro-2-methyl-1H-indol-1-yl)acetic acid] returned an IC50 of 866 nM. For `Cc1c(C2CCC(N(C)S(=O)(=O)c3ccc(F)cc3)CC2)c2cc(F)ccc2n1CC(=O)O` (stereo not drawn) [Example 28, 2-(5-fluoro-3-(4-(4-fluoro-N-methylphenylsulfonamido)cyclohexyl)-2-methyl-1H-indol-1-yl) acetic acid], the IC50 amounted to 138 nM. Regarding `Cc1c(C2CC(NS(=O)(=O)c3ccc(F)cc3)C2)c2cc(F)ccc2n1CC(=O)O` (stereo not drawn) [Example 32, 2-(5-fluoro-3-(3-(4-fluorophenylsulfonamido)cyclobutyl)-2-methyl-1H-indol-1-yl)acetic acid], the IC50 came to 33.7 nM.

`Cc1c(C2CCN(S(=O)(=O)c3ccc(Cl)cc3F)CC2)c2cc(F)ccc2n1CC(=O)O` [Example 34, 2-(5-fluoro-3-(1-((4-chloro-2-fluorophenyl)sulfonyl)piperidin-4-yl)-2-methyl-1H-indol-1-yl) acetic acid] registered an IC50 of 211 nM. Next, `Cc1c(C2CCN(S(=O)(=O)c3ccc(F)cc3Cl)CC2)c2cc(F)ccc2n1CC(=O)O` [Example 35, 2-(5-fluoro-3-(1-((2-chloro-4-fluorophenyl)sulfonyl)piperidin-4-yl)-2-methyl-1H-indol-1-yl) acetic acid]: 333 nM. As for `Cc1c(C2CCN(S(=O)(=O)c3ccc(Cl)cc3Cl)CC2)c2cc(F)ccc2n1CC(=O)O` [Example 36, 2-(5-fluoro-3-(1-((2,4-dichlorophenyl)sulfonyl)piperidin-4-yl)-2-methyl-1H-indol-1-yl)acetic acid], the figure is 422 nM; as for `Cc1c(C2CCN(S(=O)(=O)c3ccc(O)cc3)CC2)c2cc(F)ccc2n1CC(=O)O` [Example 37, 2-(5-fluoro-3-(1-((4-hydroxyphenyl)sulfonyl)piperidin-4-yl)-2-methyl-1H-indol-1-yl)acetic acid], 137 nM; as for `Cc1c(C2CCN(S(=O)(=O)c3ccccc3F)CC2)c2cc(F)ccc2n1CC(=O)O` [Example 39, 2-(5-fluoro-3-(1-((2-fluorophenyl)sulfonyl)piperidin-4-yl)-2-methyl-1H-indol-1-yl)acetic acid], 106 nM. In turn, `Cc1c(C2CCCN(S(=O)(=O)c3ccc(F)cc3)C2)c2cc(F)ccc2n1CC(=O)O` (stereo not drawn) [Example 40, 2-(5-fluoro-3-(1-((4-fluorophenyl)sulfonyl)piperidin-3-yl)-2-methyl-1H-indol-1-yl)acetic acid] showed an IC50 of 17.4 nM.

The compound `Cc1c(C2CCN(S(=O)(=O)c3cccc4ccccc34)CC2)c2cc(F)ccc2n1CC(=O)O` [Example 42, 2-(5-fluoro-2-methyl-3-(1-(naphthalen-1-ylsulfonyl)piperidin-4-yl)-1H-indol-1-yl)acetic acid] had an IC50 of 283 nM. As for `Cc1c(C2CCN(S(=O)(=O)c3ccccc3)CC2)c2cc(F)ccc2n1CC(=O)O` [Example 46, 2-(5-fluoro-2-methyl-3-(1-(phenylsulfonyl)piperidin-4-yl)-1H-indol-1-yl)acetic acid], the figure is 317 nM; as for `Cc1c(C2CCN(S(=O)(=O)c3ccc(Cl)cc3)CC2)c2cc(F)ccc2n1CC(=O)O` [Example 47, 2-(3-(1-((4-chlorophenyl)sulfonyl)piperidin-4-yl)-5-fluoro-2-methyl-1H-indol-1-yl)acetic acid], 139 nM.
